Assay results as given in patent publication US8633200B2, “Inhibitors of human immunodeficiency virus replication” (priority 2010, dated 2014).

These molecules were tested on recombinant NL-Rluc virus (NL4-3 with Renilla Luciferase gene) in MT-2 cells (assay: Inhibition of HIV replication (NL-Rluc luciferase reporter virus, MT-2 cells)). Details: NL43, 120 h, read-out: Activity.
Format: cell-based, human immunodeficiency virus (HIV)
`Cc1nc2c(C)c(-c3cccc(-c4cccc(F)c4)c3)nn2c(-c2cc(F)c3c(c2C)CCCO3)c1[C@H](OC(C)(C)C)C(=O)O` [Example 164, (2S)-2-(tert-Butoxy)-2-(7-(8-fluoro-5-methylchroman-6-yl)-2-(3′-fluoro-[1,1′-biphenyl]-3-yl)-3,5-dimethylpyrazolo[1,5-a]pyrimidin-6-yl)acetic acid] was tested, and the EC50 was < 100 nM.
In the case of `Cc1cc(-c2cccc(-c3cc4nc(C)c([C@H](OC(C)(C)C)C(=O)O)c(-c5cc(F)c6c(c5C)CCCO6)n4n3)c2)ccc1F` [Example 165, (2S)-2-(tert-Butoxy)-2-(2-(4′-fluoro-3′-methyl-[1,1′-biphenyl]-3-yl)-7-(8-fluoro-5-methylchroman-6-yl)-5-methylpyrazolo[1,5-a]pyrimidin-6-yl)acetic acid], the EC50 is reported as < 100 nM.
For `Cc1cc(F)ccc1-c1cccc(-c2cc3nc(C)c([C@H](OC(C)(C)C)C(=O)O)c(-c4cc(F)c5c(c4C)CCCO5)n3n2)c1` [Example 166, (2S)-2-(tert-Butoxy)-2-(2-(4′-fluoro-2′-methyl-[1,1′-biphenyl]-3-yl)-7-(8-fluoro-5-methylchroman-6-yl)-5-methylpyrazolo[1,5-a]pyrimidin-6-yl)acetic acid], the EC50 was < 100 nM.
`Cc1ncccc1-c1cccc(-c2cc3nc(C)c([C@H](OC(C)(C)C)C(=O)O)c(-c4cc(F)c5c(c4C)CCCO5)n3n2)c1` [Example 167, (2S)-2-(tert-Butoxy)-2-(7-(8-fluoro-5-methylchroman-6-yl)-5-methyl-2-(3-(2-methylpyridin-3-yl)phenyl)pyrazolo[1,5-a]pyrimidin-6-yl)acetic acid] was tested, and the EC50 was < 100 nM.
With `COc1cc(-c2cccc(-c3cc4nc(C)c([C@H](OC(C)(C)C)C(=O)O)c(-c5cc(F)c6c(c5C)CCCO6)n4n3)c2)ccn1` [Example 168, (2S)-2-(tert-Butoxy)-2-(7-(8-fluoro-5-methylchroman-6-yl)-2-(3-(2-methoxypyridin-4-yl)phenyl)-5-methylpyrazolo[1,5-a]pyrimidin-6-yl)acetic acid] the EC50 was < 100 nM.
In the case of `COc1ccc(-c2cccc(-c3cc4nc(C)c([C@H](OC(C)(C)C)C(=O)O)c(-c5cc(F)c6c(c5C)CCCO6)n4n3)c2)cn1` [Example 169, (2S)-2-(tert-Butoxy)-2-(7-(8-fluoro-5-methylchroman-6-yl)-2-(3-(6-methoxypyridin-3-yl)phenyl)-5-methylpyrazolo[1,5-a]pyrimidin-6-yl)acetic acid], the EC50 is reported as < 100 nM.
For `Cc1cc(-c2cccc(-c3cc4nc(C)c([C@H](OC(C)(C)C)C(=O)O)c(-c5cc(F)c6c(c5C)CCCO6)n4n3)c2)ccn1` [Example 170, (2S)-2-(tert-Butoxy)-2-(7-(8-fluoro-5-methylchroman-6-yl)-5-methyl-2-(3-(2-methylpyridin-4-yl)phenyl)pyrazolo[1,5-a]pyrimidin-6-yl)acetic acid], the EC50 was < 100 nM.
With `Cc1nc2cc(-c3cccc(-c4cncc(F)c4)c3)nn2c(-c2cc(F)c3c(c2C)CCCO3)c1[C@H](OC(C)(C)C)C(=O)O` [Example 171, (2S)-2-(tert-Butoxy)-2-(7-(8-fluoro-5-methylchroman-6-yl)-2-(3-(5-fluoropyridin-3-yl)phenyl)-5-methylpyrazolo[1,5-a]pyrimidin-6-yl)acetic acid] the EC50 was < 100 nM.
With `Cc1nc2cc(-c3cccc(-c4cnc5ccccc5c4)c3)nn2c(-c2cc(F)c3c(c2C)CCCO3)c1[C@H](OC(C)(C)C)C(=O)O` [Example 172, (2S)-2-(tert-Butoxy)-2-(7-(8-fluoro-5-methylchroman-6-yl)-5-methyl-2-(3-(quinolin-3-yl)phenyl)pyrazolo[1,5-a]pyrimidin-6-yl)acetic acid] the EC50 was < 100 nM.
For `Cc1nc2cc(-c3cccc(-c4ccccc4C(F)(F)F)c3)nn2c(-c2cc(F)c3c(c2C)CCCO3)c1[C@H](OC(C)(C)C)C(=O)O` [Example 173, (2S)-2-(tert-Butoxy)-2-(7-(8-fluoro-5-methylchroman-6-yl)-5-methyl-2-(2′-(trifluoromethyl)-[1,1′-biphenyl]-3-yl)pyrazolo[1,5-a]pyrimidin-6-yl)acetic acid], the EC50 was < 100 nM.
With `Cc1nc2cc(-c3cccc(-c4cnn(-c5ccccc5)c4C)c3)nn2c(-c2cc(F)c3c(c2C)CCCO3)c1[C@H](OC(C)(C)C)C(=O)O` [Example 174, (2S)-2-(tert-Butoxy)-2-(7-(8-fluoro-5-methylchroman-6-yl)-5-methyl-2-(3-(5-methyl-1-phenyl-1H-pyrazol-4-yl)phenyl)pyrazolo[1,5-a]pyrimidin-6-yl)acetic acid] the EC50 was < 100 nM.
For `Cc1nc2cc(-c3cccc(-c4ccnc(N5CCN(C)CC5)c4)c3)nn2c(-c2cc(F)c3c(c2C)CCCO3)c1[C@H](OC(C)(C)C)C(=O)O` [Example 175, (2S)-2-(tert-Butoxy)-2-(7-(8-fluoro-5-methylchroman-6-yl)-5-methyl-2-(3-(2-(4-methylpiperazin-1-yl)pyridin-4-yl)phenyl)pyrazolo[1,5-a]pyrimidin-6-yl)acetic acid], the EC50 was < 100 nM.
